Data taken from ChEMBL document CHEMBL4052662, “Synthesis, docking study and neuroprotective effects of some novel pyrano[3,2-c]chromene derivatives bearing morpholine/phenylpiperazine moiety” (Bioorg Med Chem, 2017).

Columns and labels:
[1] = target: Cholinesterase (Equus caballus, UniProt P81908); assay: Inhibition of equine serum BuChE using butyrylthiocholine iodide as substrate measured for 6 mins by Ellman's method
[2] = target: T1, Acetylcholinesterase (Electrophorus electricus, UniProt O42275); assay: Inhibition of electric eel AChE using acetylthiocholine iodide as substrate measured for 6 mins by Ellman's method
T1 sequence (O42275 whole entry): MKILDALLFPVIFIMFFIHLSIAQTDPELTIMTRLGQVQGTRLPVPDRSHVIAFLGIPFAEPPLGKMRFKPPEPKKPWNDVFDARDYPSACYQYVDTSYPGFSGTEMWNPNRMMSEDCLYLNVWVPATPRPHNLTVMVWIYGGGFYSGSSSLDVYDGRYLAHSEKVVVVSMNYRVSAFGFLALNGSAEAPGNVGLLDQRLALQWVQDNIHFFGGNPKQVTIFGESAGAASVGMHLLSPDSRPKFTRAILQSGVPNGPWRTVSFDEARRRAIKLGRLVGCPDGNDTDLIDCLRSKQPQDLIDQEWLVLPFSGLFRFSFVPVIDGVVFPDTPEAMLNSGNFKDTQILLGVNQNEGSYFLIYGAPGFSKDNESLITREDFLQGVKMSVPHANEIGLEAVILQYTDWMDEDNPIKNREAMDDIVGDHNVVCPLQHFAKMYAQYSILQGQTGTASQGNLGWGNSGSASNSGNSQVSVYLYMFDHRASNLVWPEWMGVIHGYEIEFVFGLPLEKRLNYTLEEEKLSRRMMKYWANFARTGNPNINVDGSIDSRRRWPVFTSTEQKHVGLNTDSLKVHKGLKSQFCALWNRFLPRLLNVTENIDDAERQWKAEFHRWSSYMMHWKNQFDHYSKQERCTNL

[3] = tested on: PC-12; assay: Neuroprotective activity against H2O2-induced cell death in rat PC12 cells assessed as cell viability 10 uM pretreated for three hours followed by H2O2 induction after 12 hrs by MTT assay relative to control; format: functional
[4] = Selectivity index, ratio of IC50 for equine serum BuChE to IC50 for electric eel AChE
[5] = target: T1, Acetylcholinesterase; assay: Mixed-type inhibition of electric eel AChE using varying levels of acetylthiocholine iodide as substrate measured for 2 mins by Lineweaver-Burk plot analysis
[6] = target: Beta-secretase 1 (Homo sapiens) (UniProt P56817); assay: Inhibition of human BACE1 using Rh-EVNLDAEFK-quencher as substrate measured after 60 mins by FRET assay
Chain of Beta-secretase 1 (Homo sapiens) (P56817 whole entry): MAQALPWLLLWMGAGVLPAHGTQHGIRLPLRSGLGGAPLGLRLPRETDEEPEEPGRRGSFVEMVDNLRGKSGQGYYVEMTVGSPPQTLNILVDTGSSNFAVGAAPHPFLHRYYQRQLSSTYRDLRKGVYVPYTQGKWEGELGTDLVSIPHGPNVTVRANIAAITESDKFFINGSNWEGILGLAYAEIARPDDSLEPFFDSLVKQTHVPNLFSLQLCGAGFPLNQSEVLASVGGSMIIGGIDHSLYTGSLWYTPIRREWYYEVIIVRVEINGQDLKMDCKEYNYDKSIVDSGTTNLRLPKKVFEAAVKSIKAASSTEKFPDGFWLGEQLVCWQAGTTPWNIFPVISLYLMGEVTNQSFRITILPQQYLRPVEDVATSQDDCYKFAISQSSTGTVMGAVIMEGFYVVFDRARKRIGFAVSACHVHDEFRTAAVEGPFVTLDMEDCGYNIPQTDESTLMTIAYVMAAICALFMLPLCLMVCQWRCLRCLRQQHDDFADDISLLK

Chain of Cholinesterase (P81908 whole entry): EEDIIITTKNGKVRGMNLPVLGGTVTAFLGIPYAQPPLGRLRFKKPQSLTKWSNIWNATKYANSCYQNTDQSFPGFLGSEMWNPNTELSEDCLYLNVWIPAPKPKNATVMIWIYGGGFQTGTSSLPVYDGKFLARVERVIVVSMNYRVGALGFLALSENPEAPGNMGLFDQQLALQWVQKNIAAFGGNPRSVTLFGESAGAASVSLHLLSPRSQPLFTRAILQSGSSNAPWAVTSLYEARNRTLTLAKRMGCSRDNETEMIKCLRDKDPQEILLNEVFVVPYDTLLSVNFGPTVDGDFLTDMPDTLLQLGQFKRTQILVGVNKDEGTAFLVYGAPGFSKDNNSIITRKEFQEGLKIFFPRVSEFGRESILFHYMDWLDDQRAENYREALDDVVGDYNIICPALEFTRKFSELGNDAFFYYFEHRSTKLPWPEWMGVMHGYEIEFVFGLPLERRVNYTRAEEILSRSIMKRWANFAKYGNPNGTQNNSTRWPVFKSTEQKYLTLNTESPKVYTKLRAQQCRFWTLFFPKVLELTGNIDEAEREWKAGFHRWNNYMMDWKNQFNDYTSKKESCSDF

N#CC1=C(NC(=O)CN2CCOCC2)Oc2c(c(=O)oc3ccccc23)C1c1ccc([N+](=O)[O-])cc1 (configuration not stated)
IC50 ([1]; read-out: IC50): > 100 µM | IC50 ([2]; read-out: IC50): > 100 µM

COc1ccc(C2C(C#N)=C(NC(=O)CN3CCN(c4ccccc4)CC3)Oc3c2c(=O)oc2ccccc32)cc1OC (configuration not stated)
Activity [3]: 76% | Ratio IC50 [4]: 41 | IC50 ([1]; read-out: IC50): 58.2 µM | IC50 ([2]; read-out: IC50): 1.42 µM

N#CC1=C(NC(=O)CN2CCN(c3ccccc3)CC2)Oc2c(c(=O)oc3ccccc23)C1c1ccc(F)cc1 (configuration not stated)
IC50 [1]: Nd(Insoluble) | IC50 [2]: Nd(Insoluble)

COc1ccc(C2C(C#N)=C(NC(=O)CN3CCOCC3)Oc3c2c(=O)oc2ccccc32)cc1 (configuration not stated)
Activity [3]: 78.5% | Ratio IC50 [4]: 31.1 | IC50 ([1]; read-out: IC50): 63.8 µM | IC50 ([2]; read-out: IC50): 2.05 µM

COc1ccc(C2C(C#N)=C(NC(=O)CN3CCOCC3)Oc3c2c(=O)oc2ccccc32)cc1OC (configuration not stated)
Activity [3]: 84.7% | Ratio IC50 [4]: 10.5 | IC50 ([1]; read-out: IC50): 34.2 µM | IC50 ([2]; read-out: IC50): 3.25 µM

N#CC1=C(NC(=O)CN2CCOCC2)Oc2c(c(=O)oc3ccccc23)C1c1ccccc1 (configuration not stated)
Ratio IC50 [4]: 3.7 | IC50 ([1]; read-out: IC50): 88.4 µM | IC50 ([2]; read-out: IC50): 23.9 µM

COc1ccc(C2C(C#N)=C(NC(=O)CN3CCOCC3)Oc3c2c(=O)oc2ccccc32)c(OC)c1 (configuration not stated)
IC50 ([1]; read-out: IC50): > 100 µM | IC50 ([2]; read-out: IC50): 25.6 µM

N#CC1=C(NC(=O)CN2CCN(c3ccccc3)CC2)Oc2c(c(=O)oc3ccccc23)C1c1ccc([N+](=O)[O-])cc1 (configuration not stated)
IC50 [1]: Nd(Insoluble) | IC50 [2]: Nd(Insoluble)

N#CC1=C(NC(=O)CN2CCN(c3ccccc3)CC2)Oc2c(c(=O)oc3ccccc23)C1c1ccccc1 (configuration not stated)
Ratio IC50 [4]: 4.5 | IC50 ([1]; read-out: IC50): 52.3 µM | IC50 ([2]; read-out: IC50): 11.5 µM

COc1ccc(C2C(C#N)=C(NC(=O)CN3CCN(c4ccccc4)CC3)Oc3c2c(=O)oc2ccccc32)c(OC)c1 (configuration not stated)
IC50 ([1]; read-out: IC50): > 100 µM | IC50 ([2]; read-out: IC50): 31.4 µM

N#CC1=C(NC(=O)CN2CCN(c3ccccc3)CC2)Oc2c(c(=O)oc3ccccc23)C1c1ccc(Cl)cc1 (configuration not stated)
Activity [3]: 75% | Ratio IC50 [4]: 14.1 | IC50 ([1]; read-out: IC50): 89.2 µM | IC50 ([2]; read-out: IC50): 6.33 µM

N#CC1=C(NC(=O)CN2CCOCC2)Oc2c(c(=O)oc3ccccc23)C1c1cccs1 (configuration not stated)
IC50 ([1]; read-out: IC50): > 100 µM | IC50 ([2]; read-out: IC50): > 100 µM

COc1ccc(C2C(C#N)=C(NC(=O)CN3CCN(c4ccccc4)CC3)Oc3c2c(=O)oc2ccccc32)cc1 (configuration not stated)
Activity [3]: 84.7% | Ratio IC50 [4]: 40.8 | Ki [5]: 3.19 µM | IC50 ([1]; read-out: IC50): 45.7 µM | IC50 ([2]; read-out: IC50): 1.12 µM | inhibition [6]: 18%

N#CC1=C(NC(=O)CN2CCOCC2)Oc2c(c(=O)oc3ccccc23)C1c1ccc(F)cc1 (configuration not stated)
IC50 ([1]; read-out: IC50): > 100 µM | IC50 ([2]; read-out: IC50): > 100 µM

Cc1ccc(C2C(C#N)=C(NC(=O)CN3CCN(c4ccccc4)CC3)Oc3c2c(=O)oc2ccccc32)c(C)c1 (configuration not stated)
IC50 ([1]; read-out: IC50): > 100 µM | IC50 ([2]; read-out: IC50): 32.9 µM

N#CC1=C(NC(=O)CN2CCOCC2)Oc2c(c(=O)oc3ccccc23)C1c1ccc(Cl)cc1 (configuration not stated)
Ratio IC50 [4]: 6.3 | IC50 ([1]; read-out: IC50): 91.5 µM | IC50 ([2]; read-out: IC50): 14.6 µM
